Data taken from ChEMBL document CHEMBL4507315 (2021).

Tests used:
[1] = biological target: Tyrosine-protein kinase ABL2 (Homo sapiens) (UniProt P42684); conditions: Compound concentration 100.0 nM
[2] = biological target: Aurora kinase A (Homo sapiens) (UniProt O14965); conditions: Compound concentration 100.0 nM
[3] = biological target: Bone morphogenetic protein receptor type-2 (Homo sapiens) (UniProt Q13873); conditions: Compound concentration 100.0 nM
[4] = system: Serine/threonine-protein kinase B-raf (Homo sapiens), P15056 [V600E]; conditions: Compound concentration 100.0 nM
[5] = biological target: Calcium/calmodulin-dependent protein kinase type 1G (Homo sapiens) (UniProt Q96NX5); conditions: Compound concentration 100.0 nM
[6] = biological target: Cyclin-dependent kinase 2 (Homo sapiens) (UniProt P24941); conditions: Compound concentration 100.0 nM
[7] = biological target: Cyclin-dependent kinase 4 (Homo sapiens) (UniProt P11802); conditions: Compound concentration 100.0 nM
[8] = biological target: Serine/threonine-protein kinase Chk2 (Homo sapiens) (UniProt O96017); conditions: Compound concentration 100.0 nM
[9] = biological target: Megakaryocyte-associated tyrosine-protein kinase (Homo sapiens) (UniProt P42679); conditions: Compound concentration 100.0 nM
[10] = biological target: Mitogen-activated protein kinase kinase kinase 12 (Homo sapiens) (UniProt Q12852); conditions: Compound concentration 100.0 nM
[11] = system: Epidermal growth factor receptor (Homo sapiens), P00533 [G719S]; conditions: Compound concentration 100.0 nM
[12] = biological target: Mitogen-activated protein kinase 4 (Homo sapiens) (UniProt P31152); conditions: Compound concentration 100.0 nM
[13] = biological target: Tyrosine-protein kinase Fer (Homo sapiens) (UniProt P16591); conditions: Compound concentration 100.0 nM
[14] = system: Receptor-type tyrosine-protein kinase FLT3 (Homo sapiens), P36888 [UNDEFINED MUTATION]; conditions: Compound concentration 100.0 nM
[15] = system: Receptor-type tyrosine-protein kinase FLT3 (Homo sapiens), P36888 [N841I]; conditions: Compound concentration 100.0 nM
[16] = biological target: G protein-coupled receptor kinase 4 (Homo sapiens) (UniProt P32298); conditions: Compound concentration 100.0 nM
[17] = biological target: Serine/threonine-protein kinase haspin (Homo sapiens) (UniProt Q8TF76); conditions: Compound concentration 100.0 nM
[18] = biological target: Homeodomain-interacting protein kinase 4 (Homo sapiens) (UniProt Q8NE63); conditions: Compound concentration 100.0 nM
[19] = biological target: Serine/threonine-protein kinase ICK (Homo sapiens) (UniProt Q9UPZ9); conditions: Compound concentration 100.0 nM
[20] = biological target: Mitogen-activated protein kinase kinase kinase kinase 2 (Homo sapiens) (UniProt Q12851); conditions: Compound concentration 100.0 nM
[21] = biological target: MAP kinase-activated protein kinase 5 (Homo sapiens) (UniProt Q8IW41); conditions: Compound concentration 100.0 nM
[22] = biological target: MAP/microtubule affinity-regulating kinase 3 (Homo sapiens) (UniProt P27448); conditions: Compound concentration 100.0 nM
[23] = biological target: Myosin light chain kinase, smooth muscle (Homo sapiens) (UniProt Q15746); conditions: Compound concentration 100.0 nM
[24] = biological target: Myosin-IIIb (Homo sapiens) (UniProt Q8WXR4); conditions: Compound concentration 100.0 nM
[25] = biological target: Serine/threonine-protein kinase 38 (Homo sapiens) (UniProt Q15208); conditions: Compound concentration 100.0 nM
[26] = biological target: Serine/threonine-protein kinase 38-like (Homo sapiens) (UniProt Q9Y2H1); conditions: Compound concentration 100.0 nM
[27] = biological target: Serine/threonine-protein kinase Nek10 (Homo sapiens) (UniProt Q6ZWH5); conditions: Compound concentration 100.0 nM
[28] = system: Phosphatidylinositol 4,5-bisphosphate 3-kinase catalytic subunit alpha isoform (Homo sapiens), P42336 [H1047Y]; conditions: Compound concentration 100.0 nM
[29] = biological target: cAMP-dependent protein kinase catalytic subunit beta (Homo sapiens) (UniProt P22694); conditions: Compound concentration 100.0 nM
[30] = biological target: Serine/threonine-protein kinase PLK3 (Homo sapiens) (UniProt Q9H4B4); conditions: Compound concentration 100.0 nM
[31] = biological target: Serine/threonine-protein kinase RIO2 (Homo sapiens) (UniProt Q9BVS4); conditions: Compound concentration 100.0 nM
[32] = biological target: Ribosomal protein S6 kinase alpha-5 (Homo sapiens) (UniProt O75582); conditions: Compound concentration 100.0 nM
[33] = biological target: Serine/threonine-protein kinase 35 (Homo sapiens) (UniProt Q8TDR2); conditions: Compound concentration 100.0 nM
[34] = biological target: Serine/threonine-protein kinase TAO3 (Homo sapiens) (UniProt Q9H2K8); conditions: Compound concentration 100.0 nM
[35] = biological target: Dual specificity testis-specific protein kinase 1 (Homo sapiens) (UniProt Q15569); conditions: Compound concentration 100.0 nM
[36] = biological target: TGF-beta receptor type-2 (Homo sapiens) (UniProt P37173); conditions: Compound concentration 100.0 nM
[37] = biological target: Non-receptor tyrosine-protein kinase TNK1 (Homo sapiens) (UniProt Q13470); conditions: Compound concentration 100.0 nM
[38] = biological target: NT-3 growth factor receptor (Homo sapiens) (UniProt Q16288); conditions: Compound concentration 100.0 nM
[39] = biological target: Tyrosine-protein kinase TXK (Homo sapiens) (UniProt P42681); conditions: Compound concentration 100.0 nM
[40] = biological target: Serine/threonine-protein kinase 32B (Homo sapiens) (UniProt Q9NY57); conditions: Compound concentration 100.0 nM
[41] = biological target: 5-hydroxytryptamine receptor 2A (Homo sapiens) (UniProt P28223); conditions: Compound concentration 10.0 uM
[42] = biological target: 5-hydroxytryptamine receptor 2C (Homo sapiens) (UniProt P28335); conditions: Compound concentration 10.0 uM
[43] = biological target: Alpha-1A adrenergic receptor (Homo sapiens) (UniProt P35348); conditions: Compound concentration 10.0 uM
[44] = biological target: Muscarinic acetylcholine receptor M2 (Homo sapiens) (UniProt P08172); conditions: Compound concentration 10.0 uM
[45] = biological target: Muscarinic acetylcholine receptor M3 (Homo sapiens) (UniProt P20309); conditions: Compound concentration 10.0 uM

Chain of Myosin-IIIb (Homo sapiens) (Q8WXR4 whole entry): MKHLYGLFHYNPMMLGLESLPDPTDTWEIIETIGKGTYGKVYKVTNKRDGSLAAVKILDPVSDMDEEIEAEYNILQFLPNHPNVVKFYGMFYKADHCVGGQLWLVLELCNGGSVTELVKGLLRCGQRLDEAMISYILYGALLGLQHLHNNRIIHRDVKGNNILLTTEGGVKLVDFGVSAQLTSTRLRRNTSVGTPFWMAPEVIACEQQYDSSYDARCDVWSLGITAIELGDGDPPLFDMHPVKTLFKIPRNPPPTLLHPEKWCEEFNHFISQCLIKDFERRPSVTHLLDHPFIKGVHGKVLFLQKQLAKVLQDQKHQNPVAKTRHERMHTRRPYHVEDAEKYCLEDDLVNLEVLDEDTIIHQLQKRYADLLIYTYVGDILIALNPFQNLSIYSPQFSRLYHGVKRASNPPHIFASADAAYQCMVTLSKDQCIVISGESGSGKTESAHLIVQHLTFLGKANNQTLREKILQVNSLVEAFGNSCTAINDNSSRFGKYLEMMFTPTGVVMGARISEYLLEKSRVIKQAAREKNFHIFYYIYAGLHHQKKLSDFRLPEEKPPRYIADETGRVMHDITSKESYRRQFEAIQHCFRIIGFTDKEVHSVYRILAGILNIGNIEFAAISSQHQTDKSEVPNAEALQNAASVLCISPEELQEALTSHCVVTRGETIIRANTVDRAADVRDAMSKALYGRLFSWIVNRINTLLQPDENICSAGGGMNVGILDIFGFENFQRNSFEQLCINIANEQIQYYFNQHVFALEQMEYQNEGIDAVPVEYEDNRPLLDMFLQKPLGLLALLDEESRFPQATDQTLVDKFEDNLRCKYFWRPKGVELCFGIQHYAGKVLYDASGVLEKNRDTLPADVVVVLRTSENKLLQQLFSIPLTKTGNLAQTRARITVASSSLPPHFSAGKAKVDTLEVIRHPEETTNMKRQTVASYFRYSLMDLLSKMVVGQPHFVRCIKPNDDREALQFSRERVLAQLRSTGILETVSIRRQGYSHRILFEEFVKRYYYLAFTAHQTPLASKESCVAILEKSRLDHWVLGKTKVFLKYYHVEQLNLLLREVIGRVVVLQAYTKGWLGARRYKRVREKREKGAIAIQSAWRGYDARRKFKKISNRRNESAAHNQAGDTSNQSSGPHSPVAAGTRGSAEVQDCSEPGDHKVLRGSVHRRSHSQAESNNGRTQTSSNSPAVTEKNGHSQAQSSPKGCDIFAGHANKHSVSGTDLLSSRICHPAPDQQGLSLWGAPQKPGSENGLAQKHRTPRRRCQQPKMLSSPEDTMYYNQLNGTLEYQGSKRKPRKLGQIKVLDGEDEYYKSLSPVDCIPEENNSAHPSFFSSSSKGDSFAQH
Chain of Mitogen-activated protein kinase kinase kinase 12 (Homo sapiens) (Q12852 whole entry): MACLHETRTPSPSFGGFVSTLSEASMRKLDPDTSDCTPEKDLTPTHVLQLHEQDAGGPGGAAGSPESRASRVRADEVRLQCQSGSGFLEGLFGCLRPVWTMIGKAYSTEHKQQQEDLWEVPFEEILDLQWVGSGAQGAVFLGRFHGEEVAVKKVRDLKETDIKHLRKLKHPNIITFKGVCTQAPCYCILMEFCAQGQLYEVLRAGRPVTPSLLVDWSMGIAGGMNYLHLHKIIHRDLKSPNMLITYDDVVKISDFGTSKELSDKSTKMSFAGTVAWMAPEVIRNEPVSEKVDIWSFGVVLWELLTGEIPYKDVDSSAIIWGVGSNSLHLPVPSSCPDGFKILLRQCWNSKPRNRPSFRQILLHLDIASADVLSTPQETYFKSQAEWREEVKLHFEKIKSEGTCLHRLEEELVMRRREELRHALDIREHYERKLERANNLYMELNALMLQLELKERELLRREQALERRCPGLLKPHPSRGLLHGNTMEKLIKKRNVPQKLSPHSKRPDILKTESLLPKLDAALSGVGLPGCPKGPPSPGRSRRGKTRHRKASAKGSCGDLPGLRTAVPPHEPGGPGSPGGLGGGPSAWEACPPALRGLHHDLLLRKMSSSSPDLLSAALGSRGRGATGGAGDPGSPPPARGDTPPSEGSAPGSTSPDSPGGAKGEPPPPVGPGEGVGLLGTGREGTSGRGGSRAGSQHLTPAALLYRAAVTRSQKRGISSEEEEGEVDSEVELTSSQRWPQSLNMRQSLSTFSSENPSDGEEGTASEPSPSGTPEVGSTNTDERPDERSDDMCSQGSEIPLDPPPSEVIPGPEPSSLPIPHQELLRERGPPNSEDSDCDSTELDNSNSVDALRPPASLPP
Chain of MAP kinase-activated protein kinase 5 (Homo sapiens) (Q8IW41 whole entry): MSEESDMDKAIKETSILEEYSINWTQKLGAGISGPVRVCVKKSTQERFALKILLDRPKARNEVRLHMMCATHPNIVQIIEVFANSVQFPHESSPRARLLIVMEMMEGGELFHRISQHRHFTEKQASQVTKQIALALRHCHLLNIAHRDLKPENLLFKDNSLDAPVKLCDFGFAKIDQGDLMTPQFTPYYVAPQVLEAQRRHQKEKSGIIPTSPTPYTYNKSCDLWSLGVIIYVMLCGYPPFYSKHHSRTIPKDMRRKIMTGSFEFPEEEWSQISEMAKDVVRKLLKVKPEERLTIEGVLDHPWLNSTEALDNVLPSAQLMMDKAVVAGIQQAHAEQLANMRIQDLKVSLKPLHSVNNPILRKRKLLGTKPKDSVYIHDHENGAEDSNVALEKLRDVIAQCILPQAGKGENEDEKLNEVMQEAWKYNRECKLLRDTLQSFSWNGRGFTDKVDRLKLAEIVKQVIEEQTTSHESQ
Chain of Bone morphogenetic protein receptor type-2 (Homo sapiens) (Q13873 whole entry): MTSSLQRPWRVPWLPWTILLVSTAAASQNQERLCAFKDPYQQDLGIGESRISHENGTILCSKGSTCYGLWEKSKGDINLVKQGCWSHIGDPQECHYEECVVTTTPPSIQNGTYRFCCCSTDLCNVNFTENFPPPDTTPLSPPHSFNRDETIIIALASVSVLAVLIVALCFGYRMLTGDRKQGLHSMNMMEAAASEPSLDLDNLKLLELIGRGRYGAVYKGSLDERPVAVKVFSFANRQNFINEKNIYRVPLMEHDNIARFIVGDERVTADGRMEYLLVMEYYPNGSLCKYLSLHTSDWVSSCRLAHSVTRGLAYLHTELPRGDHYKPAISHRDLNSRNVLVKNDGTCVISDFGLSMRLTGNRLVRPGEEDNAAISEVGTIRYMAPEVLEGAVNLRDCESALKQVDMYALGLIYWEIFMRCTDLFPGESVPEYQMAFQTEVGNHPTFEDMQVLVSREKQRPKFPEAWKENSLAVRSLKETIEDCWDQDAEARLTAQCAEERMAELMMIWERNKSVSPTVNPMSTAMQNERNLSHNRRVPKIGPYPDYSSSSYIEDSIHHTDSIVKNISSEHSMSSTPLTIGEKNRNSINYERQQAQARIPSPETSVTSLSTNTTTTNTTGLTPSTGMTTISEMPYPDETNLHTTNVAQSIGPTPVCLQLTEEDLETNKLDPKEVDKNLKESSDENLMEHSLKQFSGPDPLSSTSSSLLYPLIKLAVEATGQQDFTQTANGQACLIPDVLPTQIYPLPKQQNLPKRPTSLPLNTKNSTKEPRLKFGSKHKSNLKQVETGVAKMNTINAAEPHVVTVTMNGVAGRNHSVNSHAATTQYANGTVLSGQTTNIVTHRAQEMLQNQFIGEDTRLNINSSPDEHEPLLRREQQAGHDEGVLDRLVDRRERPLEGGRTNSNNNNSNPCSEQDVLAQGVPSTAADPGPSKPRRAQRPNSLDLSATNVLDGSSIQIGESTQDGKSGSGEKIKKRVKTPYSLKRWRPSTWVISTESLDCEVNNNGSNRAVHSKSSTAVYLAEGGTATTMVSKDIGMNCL
Chain of Tyrosine-protein kinase ABL2 (Homo sapiens) (P42684 whole entry): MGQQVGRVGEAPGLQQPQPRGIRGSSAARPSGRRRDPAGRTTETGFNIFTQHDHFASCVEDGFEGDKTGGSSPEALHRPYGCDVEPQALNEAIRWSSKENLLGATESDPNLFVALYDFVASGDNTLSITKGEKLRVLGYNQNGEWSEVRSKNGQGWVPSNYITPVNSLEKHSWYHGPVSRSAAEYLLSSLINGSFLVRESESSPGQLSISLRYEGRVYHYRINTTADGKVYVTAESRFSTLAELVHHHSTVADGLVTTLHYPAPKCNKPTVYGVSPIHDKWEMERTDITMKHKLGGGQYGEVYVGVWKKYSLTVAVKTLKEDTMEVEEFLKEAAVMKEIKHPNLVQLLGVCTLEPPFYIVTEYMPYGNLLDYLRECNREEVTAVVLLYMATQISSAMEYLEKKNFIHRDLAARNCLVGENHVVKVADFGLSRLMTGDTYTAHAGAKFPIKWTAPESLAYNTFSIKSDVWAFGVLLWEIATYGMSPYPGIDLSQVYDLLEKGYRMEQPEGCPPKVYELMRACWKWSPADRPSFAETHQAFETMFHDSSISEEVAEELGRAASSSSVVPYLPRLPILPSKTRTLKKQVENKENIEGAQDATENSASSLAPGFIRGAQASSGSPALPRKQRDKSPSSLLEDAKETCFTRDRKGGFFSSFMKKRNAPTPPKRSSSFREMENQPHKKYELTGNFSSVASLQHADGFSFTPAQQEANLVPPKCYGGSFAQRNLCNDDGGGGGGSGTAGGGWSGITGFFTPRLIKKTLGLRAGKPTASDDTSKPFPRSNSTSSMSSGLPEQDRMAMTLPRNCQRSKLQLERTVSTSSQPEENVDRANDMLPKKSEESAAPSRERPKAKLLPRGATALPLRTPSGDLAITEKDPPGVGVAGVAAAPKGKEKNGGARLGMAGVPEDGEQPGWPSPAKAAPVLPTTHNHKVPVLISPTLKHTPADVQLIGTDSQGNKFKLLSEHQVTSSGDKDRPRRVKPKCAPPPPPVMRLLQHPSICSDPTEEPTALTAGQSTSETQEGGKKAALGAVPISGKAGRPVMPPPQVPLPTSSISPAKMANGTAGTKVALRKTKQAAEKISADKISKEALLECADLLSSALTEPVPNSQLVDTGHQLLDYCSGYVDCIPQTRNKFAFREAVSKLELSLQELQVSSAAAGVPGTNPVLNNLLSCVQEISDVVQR

O=C(NCCCC1CCCCC1)c1ccc(CNC(=O)c2cnn(-c3ccccc3)c2C(F)(F)F)cc1 [SR-321]
residual activity [1]: 87%
residual activity [2]: 100%
residual activity [3]: 100%
residual activity [4]: 100%
residual activity [5]: 100%
residual activity [6]: 96%
residual activity [7]: 96%
residual activity [8]: 100%
residual activity [9]: 100%
residual activity [10]: 100%
residual activity [11]: 80%
residual activity [12]: 100%
residual activity [13]: 98%
residual activity [14]: 100%
residual activity [15]: 88%
residual activity [16]: 100%
residual activity [17]: 100%
residual activity [18]: 100%
residual activity [19]: 79%
residual activity [20]: 100%
residual activity [21]: 100%
residual activity [22]: 94%
residual activity [23]: 100%
residual activity [24]: 100%
residual activity [25]: 93%
residual activity [26]: 20%
residual activity [27]: 100%
residual activity [28]: 100%
residual activity [29]: 100%
residual activity [30]: 100%
residual activity [31]: 100%
residual activity [32]: 82%
residual activity [33]: 100%
residual activity [34]: 99%
residual activity [35]: 100%
residual activity [36]: 100%
residual activity [37]: 88%
residual activity [38]: 100%
residual activity [39]: 100%
residual activity [40]: 100%
inhibition [41]: 8.57%
inhibition [42]: 6.21%
inhibition [43]: 17.9%
inhibition [44]: 19.3%
inhibition [45]: 19.5%

Nc1c(C(=O)NCc2ccc(C(=O)NCCCC3CCCCC3)cc2)cnn1-c1ccccc1 [SR-318]
residual activity [1]: 100%
residual activity [2]: 100%
residual activity [3]: 100%
residual activity [4]: 100%
residual activity [5]: 100%
residual activity [6]: 96%
residual activity [7]: 100%
residual activity [8]: 88%
residual activity [9]: 100%
residual activity [10]: 100%
residual activity [11]: 84%
residual activity [12]: 100%
residual activity [13]: 90%
residual activity [14]: 90%
residual activity [15]: 95%
residual activity [16]: 100%
residual activity [17]: 100%
residual activity [18]: 100%
residual activity [19]: 100%
residual activity [20]: 94%
residual activity [21]: 93%
residual activity [22]: 78%
residual activity [23]: 68%
residual activity [24]: 100%
residual activity [25]: 96%
residual activity [26]: 44%
residual activity [27]: 100%
residual activity [28]: 77%
residual activity [29]: 82%
residual activity [30]: 100%
residual activity [31]: 92%
residual activity [32]: 23%
residual activity [33]: 100%
residual activity [34]: 96%
residual activity [35]: 100%
residual activity [36]: 99%
residual activity [37]: 91%
residual activity [38]: 97%
residual activity [39]: 83%
residual activity [40]: 100%
inhibition [41]: 23.7%
inhibition [42]: 10%
inhibition [43]: 36.9%
inhibition [44]: 22.5%
inhibition [45]: 25.2%
